Laboratory results taken from article PMC8773213, “In Vitro Anticancer Activity and Mechanism of Action of an Aziridinyl Galactopyranoside” (Biomedicines, 2021).

Tests used:
A549 cells [1] = assay type: cell-based; conditions: A549, 48 h, antioxidant added 1 h before; MTT
Description: (§1) Exponentially growing cells were seeded in 96-well plates and allowed to attach and grow for 24 h. The cells were then treated with increasing concentrations of the tested drugs. At the end of the treatment period, cell viability was measured with the MTT assay or the resazurin assay, two widely used techniques.
In the case of the MTT assay, this technique detects viable cells using the ability of these cells to reduce the yellow tetrazolium MTT to an insoluble colored formazan product. Subsequently, this product was solubilized and analyzed by spectrophotometry. Dead cells cannot reduce the MTT into the colored formazan product. Briefly, 24 h after plating, cells were treated with the tested compounds for 48 h; except in experiments with DNA repair-proficient and -deficient cell lines, in which cells were only exposed for 24 h to drugs and allowed to grow for an additional 48 h in drug-free medium to allow them to repair possible DNA damage induced by the tested drugs. After the treatment period, the medium was removed, the cells were washed once with PBS and 125 μL MTT (1 mg/mL in medium) was added to each well. Plates were incubated for 2–4 h and then 80 μL 20% SDS in 0.02 M HCl was added to each well. Finally, plates were incubated overnight at 37 °C and optical densities were measured at 540 nm using an absorbance spectrophotometer microplate reader.
(§2) In both assays, cell viability was expressed as percentage compared to untreated cells. Results were expressed as the means ± standard error of the mean (SEM). All data are from at least three independent experiments.

UV4 and AA8 cells = assay: Clonogenic survival assay; assay type: cell-based, Chinese hamster; conditions: 3 µM, 24 h, then colonies in drug-free medium
Description: Cell survival after treatment was determined by clonogenic assay. AA8 and UV4 cells were seeded in 6 cm Petri dishes 4 h prior to treatment for 24 h. After that, drugs were removed and cells were allowed to form colonies for eight days. The colonies were then stained with 0.4% methylene blue in methanol for 15 min. Surviving colonies made up of more than 50 cells per colony were counted. Results were represented as percentage of survival referred to untreated cells.

AA8 cells = assay: Comet assay (DNA damage); assay type: cell-based, Chinese hamster; conditions: 1 mM, 4 h
From the text: The single cell gel electrophoresis assay, also known as comet assay, is a widely used technique for the study of levels of damage in cellular DNA. In this assay, individual cells embedded in agarose are lysed, electrophoresed, stained with a fluorescent dye and examined under an epifluorescence microscope. […] The quantity of DNA present in the tail is indicative of DNA damage. This assay has been described in detail by Singh et al.. We followed this protocol with minor modifications previously described. Briefly, standard slides were immersed in 1% normal melting agarose at 55 °C, left to allow the agarose to solidify and kept at 4 °C until use. Cells were seeded in 6-well plates, allowed to grow for 24 h and then cells were exposed to AzGalp or CTP (positive control) for 4 h. At the end of the treatment, cells were harvested by trypsinization, washed with PBS and resuspended in PBS at a concentration of approximately 1 million cells/mL; 10 µL cell suspension was mixed with 85 μL of low-melting agarose (LMA) at 37 °C and the mixture was quickly added to the slides with the first layer of agarose, spread using a coverslip and kept at 4 °C for 8 min to allow the LMA to solidify. The coverslips were then removed and another layer of 100 μL of LMA at 37 °C was added, covered with a coverslip and allowed to solidify at 4 °C for 8 min. After removing the coverslips, the slides were incubated in the dark for 1 h at 4 °C in a lysis buffer (pH 10.0) containing 0.25 M NaOH, 10% DMSO, 1% Triton X-100, 10 mM Tris-HCl, 100 mM Na2-EDTA and 2.5 M NaCl. Next, alkaline denaturation with electrophoretic buffer (300 mM NaOH and 1 mM Na2-EDTA) was carried out in an electrophoresis chamber for 20 min and then electrophoresis was performed at 1 V/cm for 20 min. […] DNA damage levels were quantified for each cell and expressed as percent of DNA in the tail and as the tail moment (defined as the product of the tail length and the fraction of total DNA in the tail). The results were averaged from two independent experiments and expressed as mean ± SEM.

[2] = system: VH10 (Human skin non-malignant cells); assay: Resazurin cell viability assay, VH10; assay type: cell-based; conditions: 72 h, read-out: IC50 (Mean ± SEM, µM), VH10
Description: as §1
(§3) The resazurin assay is a redox-based colorimetric/fluorometric technique based on the ability of viable cells to reduce the blue compound resazurin into the pink, fluorescent and soluble product resorufin. The amount of resorufin produced is generally proportional to the number of living cells. In this assay, 24 h after seeding, cells were exposed to the tested drugs for 72 h. Then 100 μL resazurin in medium was added to each well (final concentration of 10 μg/mL) and, one hour later the fluorescence intensity was measured at 530/590 nm (excitation/emission) using a fluorescence microplate reader.
as §2

[3] = system: SW480 (Human colon adenocarcinoma cells); assay: Resazurin cell viability assay, SW480; assay type: cell-based; conditions: 72 h, read-out: IC50 (Mean ± SEM, µM), SW480
Description: as §1, §3, §2

[4] = system: NB4 (Human acute promyelocytic leukemia cells); assay: Resazurin cell viability assay, NB4; assay type: cell-based; conditions: 72 h, read-out: IC50 (Mean ± SEM, µM), NB4
Description: as §1, §3, §2

[5] = system: BJ-RASV12 (HRASV12-transformed BJ-SV40T cells); assay: Resazurin cell viability assay, BJ-RASV12; assay type: cell-based, human; conditions: 72 h
Description: as §1, §3, §2

[6] = system: cancer cell lines versus MRC-5 and VH10 normal cell lines; assay: Resazurin assay, panel of cancer cells versus normal cells; assay type: cell-based, human; conditions: 72 h
Description: as §1, §3, §2
Next, we evaluated the cytotoxic activity of AzGalp in cancer cell lines derived from solid tumors (HeLa, PC3, U2OS, HepG2 and SW480) and from hematological malignancies (NB4 and HL-60). To study the selectivity against cancer cells, MRC-5 and VH10 cells were used as normal cell lines; 5-FU was used as a positive control. All cells were treated with AzGalp or 5-FU for 72 h and cell viability was evaluated with the resazurin assay. This assay was used to determine cell viability instead of the MTT assay because the HL60 and NB4 cell lines grow in suspension. […] Leukemia cell lines were approximately 15 times more sensitive than normal cells to the cytotoxicity of our aziridine.

[7] = system: BJ-hTERT (hTERT-immortalized skin non-malignant BJ cells); assay: Resazurin cell viability assay, BJ-hTERT; assay type: cell-based; conditions: Homo sapiens, 72 h, read-out: IC50 (Mean ± SEM, µM), BJ-hTERT
Description: as §1, §3, §2

[8] = system: HeLa (Human cervical carcinoma cells); assay: Resazurin cell viability assay, HeLa; assay type: cell-based; conditions: 72 h, read-out: IC50 (Mean ± SEM, µM), HeLa
Description: as §1, §3, §2

[9] = system: BJ-SV40T (SV40T-transformed BJ-hTERT cells); assay: Resazurin cell viability assay, BJ-SV40T; assay type: cell-based; conditions: Homo sapiens, 72 h, read-out: IC50 (Mean ± SEM, µM), BJ-SV40T
Description: as §1, §3, §2

[10] = system: U2OS (Human osteosarcoma cells); assay: Resazurin cell viability assay, U2OS; assay type: cell-based; conditions: 72 h, read-out: IC50 (Mean ± SEM, µM), U2OS
Description: as §1, §3, §2

[11] = system: PC3 (Human prostate cancer cells); assay: Resazurin cell viability assay, PC3; assay type: cell-based; conditions: 72 h, read-out: IC50 (Mean ± SEM, µM), PC3
Description: as §1, §3, §2

[12] = system: HL-60 (Human acute promyelocytic leukemia cells); assay: Resazurin cell viability assay, HL-60; assay type: cell-based; conditions: 72 h, read-out: IC50 (Mean ± SEM, µM), HL-60
Description: as §1, §3, §2

[13] = system: HepG2 (Human hepatocellular carcinoma cells); assay: Resazurin cell viability assay, HepG2; assay type: cell-based; conditions: 72 h, read-out: IC50 (Mean ± SEM, µM), HepG2
Description: as §1, §3, §2

[14] = system: MRC-5 (Human lung non-malignant cells); assay: Resazurin cell viability assay, MRC-5; assay type: cell-based; conditions: MRC5, 72 h, read-out: IC50 (Mean ± SEM, µM), MRC-5
Description: as §1, §3, §2

A549 cells [15] = assay: Glycolysis inhibition (glucose consumed, lactate produced); assay type: cell-based, human; conditions: A549, 8 h
Description: Inhibition of glycolysis was determined by measuring glucose consumed (initial product of glycolysis) and lactate produced (final product of glycolysis) in untreated and treated cells. Cells were seeded in 6-well plates at a density of 10^6 cells/well and were allowed to attach for a few hours before treatment with the tested compounds for 8 h. After treatment, medium was recollected and glucose and lactate concentrations were determined using the Accutrend® Plus analyzer together with Accutrend glucose strips and BM-Lactate strips (Roche Diagnostics, Barcelona, Spain). After calibrating the instrument with glucose and lactate calibration strips, test strips were used to determine glucose and lactate levels through colorimetric oxidase mediator reactions according to the manufacturer’s instructions. The results are expressed as percentage of glucose consumption and percentage of lactate production in relation to untreated cells. Data were averaged from two independent experiments and shown as mean ± SEM.

SMILES: OO [H2O2, hydrogen peroxide, reference compound]
- Effect of MnTMPyP on cytotoxicity (A549 cells [1]): decreased in the presence of the three antioxidants
- Effect of NAC on cytotoxicity (A549 cells [1]): decreased in the presence of the three antioxidants
- Effect of catalase on cytotoxicity (A549 cells [1]): decreased in the presence of the three antioxidants

SMILES: COc1cc([C@@H]2c3cc4c(cc3[C@@H](O[C@@H]3O[C@@H]5CO[C@@H](C)O[C@H]5[C@H](O)[C@H]3O)[C@H]3COC(=O)[C@H]23)OCO4)cc(OC)c1O [etoposide, reference compound]
- Cell survival, UV4 versus AA8 (clonogenic assay) (UV4 and AA8 cells): UV4 cells were more sensitive

SMILES: COc1cc(C(=O)O)cc(OC)c1O [Syringic acid, reference compound]
- DNA damage in comet assay (AA8 cells): does not induce DNA damage

SMILES: O=c1[nH]cc(F)c(=O)[nH]1 [5-FU, 5-fluorouracil, reference compound]
- IC50 [2]: > 1000 µM
- IC50 [3]: 2.9 ± 1.3 µM
- IC50 [4]: 2.5 ± 0.3 µM
- Sensitivity of BJ-RASV12 malignant cells relative to BJ-hTERT non-malignant cells ([5]; resazurin): did not observe this selectivity
- IC50 ([5]; Homo sapiens, resazurin assay, read-out: IC50 (Mean ± SEM, µM), BJ-RASV12): 3 ± 1.4 µM
- Viability of leukemia cells ([6]; HL60 and NB4, concentrations between 10 and 100 µM): higher than 20%
- Viability of normal cells ([6]; MRC-5 and VH10, concentrations between 10 and 100 µM): showed cytotoxicity against these cells
- IC50 [7]: 2.4 ± 0.5 µM
- IC50 [8]: 66.3 ± 27 µM
- IC50 [9]: 5.4 ± 0.7 µM
- IC50 [10]: 6.4 ± 0.7 µM
- IC50 [11]: 1.5 ± 0.3 µM
- IC50 [12]: 0.9 ± 0.8 µM
- IC50 [13]: 0.6 ± 0.3 µM
- IC50 [14]: > 1000 µM

SMILES: O=C(O)C(Cl)Cl [DCA, dichloroacetate, reference compound]
- Glycolytic activity (glucose consumption and lactate production) (A549 cells [15]): reduced lactate production and glucose consumption
